These results are taken from ChEMBL document CHEMBL5715954, “Silencing c-Myc translation as a therapeutic strategy through targeting PI3Kδ and CK1ε in hematological malignancies” (Blood, 2017).

Common to all, as to design: scale not given: the % may be the effect or the level left
Assay [1] addresses T1, Non-receptor tyrosine-protein kinase TNK1 (Homo sapiens) (UniProt Q13470).
T1 sequence (whole entry): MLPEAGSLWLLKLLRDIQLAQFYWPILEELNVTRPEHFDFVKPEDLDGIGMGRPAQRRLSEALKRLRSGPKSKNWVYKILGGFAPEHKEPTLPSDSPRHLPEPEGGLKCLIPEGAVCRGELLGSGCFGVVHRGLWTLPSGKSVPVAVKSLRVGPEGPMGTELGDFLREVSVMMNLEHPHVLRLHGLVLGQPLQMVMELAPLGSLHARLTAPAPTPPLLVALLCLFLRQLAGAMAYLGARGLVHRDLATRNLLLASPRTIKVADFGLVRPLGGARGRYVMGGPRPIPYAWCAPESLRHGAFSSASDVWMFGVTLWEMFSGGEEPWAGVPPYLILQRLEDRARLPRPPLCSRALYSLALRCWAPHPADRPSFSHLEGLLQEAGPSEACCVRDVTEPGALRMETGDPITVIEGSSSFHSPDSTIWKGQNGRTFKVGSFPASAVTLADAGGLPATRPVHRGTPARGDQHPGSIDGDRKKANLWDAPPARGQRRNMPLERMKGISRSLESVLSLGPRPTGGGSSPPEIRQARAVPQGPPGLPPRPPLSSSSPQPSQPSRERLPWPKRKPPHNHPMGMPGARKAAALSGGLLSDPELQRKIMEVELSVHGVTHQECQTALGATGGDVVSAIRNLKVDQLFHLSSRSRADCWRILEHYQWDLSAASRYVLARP
In words: Inhibition of human TNK1 assessed as enzyme activity at 1 uM using poly[Glu:Tyr] (4:1) as substrate preincubated for 20 mins followed by [gamma-33P]-ATP addition and measured after 120 mins by radiometric Hot-SpotSM Kinase assay relative to control.

Assay [2] concerns the target Protein-tyrosine kinase 6 (Homo sapiens) (UniProt Q13882). In words: Inhibition of human BRK assessed as enzyme activity at 1 uM using poly[Glu:Tyr] (4:1) as substrate preincubated for 20 mins followed by [gamma-33P]-ATP addition and measured after 120 mins by radiometric Hot-SpotSM Kinase assay relative to control.
The target in assay [3] is RAC-gamma serine/threonine-protein kinase (Homo sapiens) (UniProt Q9Y243). The assay can be described thus: Inhibition of human AKT3 assessed as enzyme activity at 1 uM using KGSGSGRPRTSSFAEG as substrate preincubated for 20 mins followed by [gamma-33P]-ATP addition and measured after 120 mins by radiometric Hot-SpotSM Kinase assay relative to control.
Chain of RAC-gamma serine/threonine-protein kinase (Homo sapiens) (Q9Y243 whole entry): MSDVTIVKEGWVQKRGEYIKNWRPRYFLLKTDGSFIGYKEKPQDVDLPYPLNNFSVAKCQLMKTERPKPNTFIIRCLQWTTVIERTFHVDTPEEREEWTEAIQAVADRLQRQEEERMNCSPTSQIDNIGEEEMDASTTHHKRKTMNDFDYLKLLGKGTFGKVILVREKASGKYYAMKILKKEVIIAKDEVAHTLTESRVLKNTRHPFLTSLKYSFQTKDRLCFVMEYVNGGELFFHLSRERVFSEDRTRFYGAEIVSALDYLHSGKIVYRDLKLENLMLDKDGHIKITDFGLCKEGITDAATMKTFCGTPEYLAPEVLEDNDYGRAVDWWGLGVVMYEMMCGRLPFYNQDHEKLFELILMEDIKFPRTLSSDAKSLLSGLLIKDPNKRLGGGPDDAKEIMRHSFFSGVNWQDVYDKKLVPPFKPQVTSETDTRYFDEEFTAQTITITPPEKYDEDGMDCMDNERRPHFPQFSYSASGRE
The target of assay [4] is Ribosomal protein S6 kinase alpha-1 (Homo sapiens) (UniProt Q15418). The assay can be described thus: Inhibition of human RSK1 assessed as enzyme activity at 1 uM using KKLNRTLSVA as substrate preincubated for 20 mins followed by [gamma-33P]-ATP addition and measured after 120 mins by radiometric Hot-SpotSM Kinase assay relative to control.
Chain of Ribosomal protein S6 kinase alpha-1 (Homo sapiens) (Q15418 whole entry): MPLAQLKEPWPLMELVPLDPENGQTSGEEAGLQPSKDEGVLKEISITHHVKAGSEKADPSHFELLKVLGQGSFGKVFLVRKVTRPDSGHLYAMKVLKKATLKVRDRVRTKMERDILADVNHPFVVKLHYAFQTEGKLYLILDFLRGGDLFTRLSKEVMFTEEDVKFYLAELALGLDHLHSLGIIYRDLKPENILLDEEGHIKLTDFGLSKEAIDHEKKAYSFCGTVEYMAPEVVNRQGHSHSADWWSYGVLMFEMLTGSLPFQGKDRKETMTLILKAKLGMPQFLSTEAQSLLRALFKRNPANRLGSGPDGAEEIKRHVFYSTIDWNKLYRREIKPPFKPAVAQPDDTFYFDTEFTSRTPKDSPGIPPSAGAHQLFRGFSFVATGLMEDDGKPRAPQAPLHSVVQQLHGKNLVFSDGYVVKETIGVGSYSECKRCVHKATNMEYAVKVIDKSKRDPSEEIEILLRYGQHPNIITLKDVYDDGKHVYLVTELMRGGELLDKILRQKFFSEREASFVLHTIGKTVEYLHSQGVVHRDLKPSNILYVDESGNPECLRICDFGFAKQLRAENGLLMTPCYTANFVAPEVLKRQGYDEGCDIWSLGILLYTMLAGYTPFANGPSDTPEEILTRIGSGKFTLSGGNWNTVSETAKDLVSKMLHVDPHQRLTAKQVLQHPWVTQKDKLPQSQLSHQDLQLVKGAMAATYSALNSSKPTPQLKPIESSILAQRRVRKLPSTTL
Assay [5] deals with T2, Serine/threonine-protein kinase Chk1 (Homo sapiens) (UniProt O14757).
T2 sequence (whole entry): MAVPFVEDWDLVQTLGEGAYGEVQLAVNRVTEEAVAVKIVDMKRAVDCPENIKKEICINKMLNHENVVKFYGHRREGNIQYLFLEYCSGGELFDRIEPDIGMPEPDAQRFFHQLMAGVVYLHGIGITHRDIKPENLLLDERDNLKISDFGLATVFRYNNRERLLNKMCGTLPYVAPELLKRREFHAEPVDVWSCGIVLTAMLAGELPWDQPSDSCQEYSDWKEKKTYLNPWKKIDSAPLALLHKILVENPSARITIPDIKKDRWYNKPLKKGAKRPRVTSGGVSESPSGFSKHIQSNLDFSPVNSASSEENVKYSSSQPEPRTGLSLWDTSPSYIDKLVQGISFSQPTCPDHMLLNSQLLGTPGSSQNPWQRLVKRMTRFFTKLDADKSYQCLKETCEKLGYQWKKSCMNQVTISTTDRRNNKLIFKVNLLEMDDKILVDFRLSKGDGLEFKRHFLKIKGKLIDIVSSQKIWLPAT
The assay can be described thus: Inhibition of human CHK1 assessed as enzyme activity at 1 uM using KKKVSRSGLYRSPSMPENLNRPR as substrate preincubated for 20 mins followed by [gamma-33P]-ATP addition and measured after 120 mins by radiometric Hot-SpotSM Kinase assay relative to control.

The target of assay [6] is T3, Tyrosine-protein kinase receptor TYRO3 (Homo sapiens) (UniProt Q06418).
T3 sequence (whole entry): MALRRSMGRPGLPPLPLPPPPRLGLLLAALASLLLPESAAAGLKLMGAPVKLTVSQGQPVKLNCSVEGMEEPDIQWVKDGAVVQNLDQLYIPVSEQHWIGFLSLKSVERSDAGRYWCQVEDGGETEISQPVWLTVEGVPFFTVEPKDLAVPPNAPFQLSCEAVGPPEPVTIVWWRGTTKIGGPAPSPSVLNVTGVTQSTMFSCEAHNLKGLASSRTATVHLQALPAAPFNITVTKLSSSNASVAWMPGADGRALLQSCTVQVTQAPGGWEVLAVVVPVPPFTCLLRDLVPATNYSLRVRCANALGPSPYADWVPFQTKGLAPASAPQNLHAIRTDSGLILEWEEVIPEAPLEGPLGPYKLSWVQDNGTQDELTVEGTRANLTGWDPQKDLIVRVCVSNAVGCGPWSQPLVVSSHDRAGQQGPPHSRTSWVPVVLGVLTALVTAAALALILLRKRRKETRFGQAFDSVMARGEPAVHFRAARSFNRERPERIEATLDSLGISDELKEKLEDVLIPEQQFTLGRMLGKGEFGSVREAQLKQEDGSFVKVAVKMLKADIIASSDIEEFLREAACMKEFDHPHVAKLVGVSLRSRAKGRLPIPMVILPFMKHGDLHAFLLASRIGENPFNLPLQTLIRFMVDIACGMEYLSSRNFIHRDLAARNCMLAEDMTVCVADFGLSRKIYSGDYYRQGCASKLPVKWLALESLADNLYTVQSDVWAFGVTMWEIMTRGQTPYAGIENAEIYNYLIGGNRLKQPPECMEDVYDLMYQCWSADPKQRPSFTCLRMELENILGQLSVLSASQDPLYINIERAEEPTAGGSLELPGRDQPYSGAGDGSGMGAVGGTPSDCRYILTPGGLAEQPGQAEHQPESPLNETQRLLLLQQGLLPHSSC
In words: Inhibition of human TYRO3 assessed as enzyme activity at 1 uM using poly[Glu:Tyr] (4:1) as substrate preincubated for 20 mins followed by [gamma-33P]-ATP addition and measured after 120 mins by radiometric Hot-SpotSM Kinase assay relative to control.

Assay [7] concerns the target Mitogen-activated protein kinase 10 (Homo sapiens) (UniProt P53779). The assay can be described thus: Inhibition of human JNK3 assessed as enzyme activity at 1 uM using ATF2 as substrate preincubated for 20 mins followed by [gamma-33P]-ATP addition and measured after 120 mins by radiometric Hot-SpotSM Kinase assay relative to control.
For assay [8], the target named is Serine/threonine-protein kinase SIK2 (Homo sapiens) (UniProt Q9H0K1). In words: Inhibition of human SIK2 assessed as enzyme activity at 1 uM using AMARAASAAALARRR as substrate preincubated for 20 mins followed by [gamma-33P]-ATP addition and measured after 120 mins by radiometric Hot-SpotSM Kinase assay relative to control.
Chain of Serine/threonine-protein kinase SIK2 (Homo sapiens) (Q9H0K1 whole entry, looked up): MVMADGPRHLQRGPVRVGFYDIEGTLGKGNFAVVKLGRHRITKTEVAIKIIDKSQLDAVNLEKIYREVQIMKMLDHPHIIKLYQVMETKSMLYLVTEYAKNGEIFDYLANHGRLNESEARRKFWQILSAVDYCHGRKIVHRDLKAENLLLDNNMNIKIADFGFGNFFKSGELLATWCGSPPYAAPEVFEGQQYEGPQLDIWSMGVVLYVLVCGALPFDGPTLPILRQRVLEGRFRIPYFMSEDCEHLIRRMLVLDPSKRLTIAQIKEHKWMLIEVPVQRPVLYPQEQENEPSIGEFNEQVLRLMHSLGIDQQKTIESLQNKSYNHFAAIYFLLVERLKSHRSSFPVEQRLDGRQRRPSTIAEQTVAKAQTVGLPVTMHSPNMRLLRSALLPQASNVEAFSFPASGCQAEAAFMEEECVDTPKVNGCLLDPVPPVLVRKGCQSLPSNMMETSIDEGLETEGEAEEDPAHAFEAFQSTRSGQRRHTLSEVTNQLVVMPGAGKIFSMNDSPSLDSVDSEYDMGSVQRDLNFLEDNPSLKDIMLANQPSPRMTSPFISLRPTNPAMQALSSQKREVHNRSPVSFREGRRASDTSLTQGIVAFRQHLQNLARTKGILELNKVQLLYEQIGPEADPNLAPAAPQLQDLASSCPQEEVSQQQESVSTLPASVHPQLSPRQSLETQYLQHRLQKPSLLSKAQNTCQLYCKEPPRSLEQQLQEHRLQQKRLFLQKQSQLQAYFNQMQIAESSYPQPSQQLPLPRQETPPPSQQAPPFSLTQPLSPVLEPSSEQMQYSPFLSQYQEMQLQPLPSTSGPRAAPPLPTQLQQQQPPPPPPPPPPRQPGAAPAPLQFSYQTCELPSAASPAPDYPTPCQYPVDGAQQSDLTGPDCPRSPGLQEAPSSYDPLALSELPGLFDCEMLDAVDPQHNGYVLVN

Chain of Protein-tyrosine kinase 6 (Homo sapiens) (Q13882 whole entry, looked up): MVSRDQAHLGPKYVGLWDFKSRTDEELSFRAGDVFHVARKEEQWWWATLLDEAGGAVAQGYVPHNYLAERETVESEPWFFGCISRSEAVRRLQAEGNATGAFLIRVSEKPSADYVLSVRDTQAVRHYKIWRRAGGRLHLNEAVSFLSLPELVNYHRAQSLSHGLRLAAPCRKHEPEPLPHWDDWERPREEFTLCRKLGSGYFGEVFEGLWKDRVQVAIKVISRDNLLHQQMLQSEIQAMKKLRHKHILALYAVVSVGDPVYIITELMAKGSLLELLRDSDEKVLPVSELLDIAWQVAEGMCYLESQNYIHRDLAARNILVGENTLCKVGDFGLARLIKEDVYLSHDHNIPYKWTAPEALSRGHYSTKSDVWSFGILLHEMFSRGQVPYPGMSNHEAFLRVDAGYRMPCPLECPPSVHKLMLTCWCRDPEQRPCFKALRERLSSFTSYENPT
Chain of Mitogen-activated protein kinase 10 (Homo sapiens) (P53779 whole entry): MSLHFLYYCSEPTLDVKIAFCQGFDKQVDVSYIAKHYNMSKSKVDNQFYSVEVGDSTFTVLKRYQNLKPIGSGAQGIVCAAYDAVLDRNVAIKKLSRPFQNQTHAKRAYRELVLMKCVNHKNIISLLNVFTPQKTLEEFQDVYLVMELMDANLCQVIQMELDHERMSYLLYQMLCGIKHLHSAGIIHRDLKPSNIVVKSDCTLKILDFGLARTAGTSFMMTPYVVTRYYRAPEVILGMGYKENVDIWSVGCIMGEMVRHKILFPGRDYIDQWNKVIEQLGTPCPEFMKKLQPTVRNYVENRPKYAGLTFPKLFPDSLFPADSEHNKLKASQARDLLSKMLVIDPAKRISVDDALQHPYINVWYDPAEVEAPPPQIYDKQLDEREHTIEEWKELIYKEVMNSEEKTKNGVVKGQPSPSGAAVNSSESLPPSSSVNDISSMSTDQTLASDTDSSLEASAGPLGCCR

On to `C[C@H](Nc1ncnc2nc[nH]c12)c1cc2cccc(Cl)c2c(=O)n1-c1ccccc1`, for which the Activity came to 87.5% in assay [1]; 98.3% in assay [2]; 99.8% in assay [3]; 100% in assay [4]; 94.1% in assay [5]; 98.5% in assay [6]. In addition, the Activity in assay [7] is 96.6%; in assay [8] it was 94%.

For the compound `CC[C@H](Nc1ncnc2[nH]cnc12)c1nc2cccc(F)c2c(=O)n1-c1ccccc1`, the Activity in assay [1] amounted to 86.3%; in assay [2] it was 97.6%; in assay [3], 102%; in assay [4] it was 101%; in assay [5], 93.2%; in assay [6], 98.9%. In addition, the Activity was 96% in assay [7] and 98.5% in assay [8].

As for `CC(C)Oc1ccc(-c2nn([C@@H](C)c3oc4ccc(F)cc4c(=O)c3-c3cccc(F)c3)c3ncnc(N)c23)cc1F` [UMBRALISIB], the Activity in assay [1] was 88.9%; in assay [2], 97.9%; in assay [3], 100%; in assay [4] it was 104%; in assay [5], 95%; in assay [6], 96.8%. The Activity in assay [7] stood at 95.6%; in assay [8] it was 95.4%.
